Molecules are shown by their SMILES.

This is an account of results in the PolyMetriX glass transition set.

As for `*/C(C)=C(/*)SCCCCCCCCCC` (repeat unit), the glass transition temperature came to 60.00 °C.

As to `*=Nc1cccc(S(=O)(=O)c2cccc(/N=C3/OC(=O)c4ccc(Oc5ccc6c(c5)C(=O)OC6=*)cc43)c2)c1` (repeat unit), the glass transition temperature was found to be 190.00 °C.

The compound `*C#Cc1cccc(C#C[SiH](*)C)c1` (repeat unit) yielded a glass transition temperature of 72.00 °C.

Consider `*C(=O)c1ccc2c(c1)/C(=N\c1cccc(Oc3cccc(Oc4cccc(/N=C5/OC(=O)c6ccc(*)cc65)c4)c3)c1)OC2=O` (repeat unit), for which the glass transition temperature is 190.00 °C.

On to `*CC(*)(F)C(=O)OCCC(F)(F)C(F)(F)C(F)(F)C(F)(F)C(F)(F)C(F)(F)C(F)(F)C(F)(F)C(F)(F)C(F)(F)F` (repeat unit), for which the glass transition temperature was 53.00 °C.

With `*CC(*)C(=O)N(C)C` (repeat unit), the glass transition temperature stood at 114.00 °C.

With `*CC(*)C(=O)N1CCCCC1` (repeat unit), the glass transition temperature worked out at 108.00 °C.

`*CC(*)C(=O)N1CCOCC1` (repeat unit) had a glass transition temperature of 150.00 °C.

`*CC(*)C(=O)NC(C)(C)CS(=O)(=O)O` (repeat unit) showed a glass transition temperature of 85.00 °C.

The compound `*CC(*)C(=O)Nc1ccc(C(=O)/C=C/c2ccc(Br)cc2)cc1` (repeat unit) had a glass transition temperature of 64.00 °C.

For the compound `*CC(*)C(=O)Nc1ccc2c(c1)C(=O)c1ccccc1C2=O` (repeat unit), the glass transition temperature came out at 128.00 °C.

The compound `*CC(*)C(=O)OC(C(F)(F)F)C(F)(F)F` (repeat unit) yielded a glass transition temperature of 42.30 °C.

The compound `*CC(*)C(=O)OC(Cl)C(Cl)(Cl)Cl` (repeat unit) gave a glass transition temperature of 70.50 °C.

`*CC(*)C(=O)OC(OCC)C(F)(F)F` (repeat unit) returned a glass transition temperature of 5.00 °C.

As for `*CC(*)C(=O)OC12CC3CC(C)(CC(C)(C3)C1)C2` (repeat unit), the glass transition temperature was 104.00 °C.

Regarding `*CC(*)C(=O)OCC(C)CC` (repeat unit), the glass transition temperature is -32.00 °C.

For `*CC(*)C(=O)OCC(C)O` (repeat unit), the glass transition temperature is -7.00 °C.

`*CC(*)C(=O)OCC(F)(F)C(F)(F)C(F)(F)C(F)(F)F` (repeat unit) displayed a glass transition temperature of -37.00 °C.

The compound `*CC(*)C(=O)OCC(F)(F)C(F)(F)C(F)(F)C(F)F` (repeat unit) showed a glass transition temperature of -35.00 °C.

Turning to `*CC(*)C(=O)OCC(F)(F)C(F)(F)OC(F)(F)C(F)(F)C(F)(F)C(F)(F)F` (repeat unit), the glass transition temperature was -68.00 °C.

`*CC(*)C(=O)OCC(F)(F)C(F)(F)OC(F)(F)F` (repeat unit) displayed a glass transition temperature of -55.00 °C.

In turn, `*CC(*)C(=O)OCC(F)(F)C(F)C(F)(F)F` (repeat unit) displayed a glass transition temperature of -22.00 °C.

Turning to `*CC(*)C(=O)OCC1(CC)COCOC1` (repeat unit), the glass transition temperature stood at 42.00 °C.

Regarding `*CC(*)C(=O)OCCC(F)(F)C(F)(F)C(F)(F)C(F)(F)C(F)(F)C(F)(F)F` (repeat unit), the glass transition temperature was -12.00 °C.

For `*CC(*)C(=O)OCCCCC` (repeat unit), the glass transition temperature was -57.00 °C.

The compound `*CC(*)C(=O)OCCCCCCCCCCCCOC(=O)c1ccc(OC(=O)c2ccc(C#N)cc2)cc1` (repeat unit) came in with a glass transition temperature of 15.00 °C.

With `*CC(*)C(=O)OCCCCCCCCCCCCOc1ccc(C(=O)Oc2ccc(-c3cccc(OC(=O)c4ccc(OC(=O)c5ccc(OCCCCCCCCCCCC)cc5)cc4)c3)cc2)cc1` (repeat unit), the glass transition temperature is 67.00 °C.

Consider `*CC(*)C(=O)OCCCCCCCCCCCn1c2ccccc2c2ccccc21` (repeat unit), for which the glass transition temperature amounted to 15.00 °C.

Compound `*CC(*)C(=O)OCCCCCCCCCCOC(=O)c1ccc(OC(=O)c2ccc(C#N)cc2)cc1` (repeat unit) came in with a glass transition temperature of 15.00 °C.

In turn, `*CC(*)C(=O)OCCCCCCOC(=O)c1ccc(OC(=O)c2ccc(C#N)cc2)cc1` (repeat unit) returned a glass transition temperature of 30.00 °C.

The compound `*CC(*)C(=O)OCCCCCCOc1ccc(/C=N/c2ccc(OCCCCC)cc2)c(O)c1` (repeat unit) returned a glass transition temperature of 41.00 °C.

`*CC(*)C(=O)OCCCCCCOc1ccc(/N=N/c2ccc([N+](=O)[O-])cc2)cc1` (repeat unit) had a glass transition temperature of 35.80 °C.

Regarding `*CC(*)C(=O)OCCCCCCOc1ccc(C(=O)Oc2ccc(C#N)cc2)cc1` (repeat unit), the glass transition temperature was 19.50 °C.

`*CC(*)C(=O)OCCCCCCSCC#N` (repeat unit) registered a glass transition temperature of -59.00 °C.

`*CC(*)C(=O)OCCCCCn1c2ccccc2c2ccccc21` (repeat unit) came in with a glass transition temperature of 53.00 °C.

In the case of `*CC(*)C(=O)OCCCCSC` (repeat unit), the glass transition temperature was -70.00 °C.

On to `*CC(*)C(=O)OCCCCn1c2ccccc2c2ccccc21` (repeat unit), for which the glass transition temperature was found to be 68.00 °C.

The compound `*CC(*)C(=O)OCCCOc1ccc(C(=O)OCCCC(F)(F)C(F)(F)C(F)(F)C(F)(F)C(F)(F)C(F)(F)C(F)(F)C(F)(F)F)cc1` (repeat unit) gave a glass transition temperature of 48.00 °C.

Consider `*CC(*)C(=O)OCCCSCCC#N` (repeat unit), for which the glass transition temperature is -58.00 °C.

For `*CC(*)C(=O)OCCOC` (repeat unit), the glass transition temperature was -34.00 °C.

In turn, `*CC(*)C(=O)OCCOCC(F)(F)C(F)(F)C(F)(F)F` (repeat unit) yielded a glass transition temperature of -45.00 °C.

Take `*CC(*)C(=O)OCCOc1ccc(C(=O)Oc2ccc(OC(=O)c3ccc(OCCCC)cc3)cc2)cc1` (repeat unit): the glass transition temperature is 45.00 °C.

The compound `*CC(*)C(=O)OCCn1c2ccccc2c2ccccc21` (repeat unit) had a glass transition temperature of 106.80 °C.

`*CC(*)C(=O)OCF` (repeat unit) yielded a glass transition temperature of 15.00 °C.

`*CC(*)C(=O)OCc1ccc(C#N)cc1` (repeat unit) gave a glass transition temperature of 44.00 °C.

Turning to `*CC(*)C(=O)[O][Na]` (repeat unit), the glass transition temperature turned out to be 114.40 °C.

With `*CC(*)C(=O)Oc1ccc(/N=N/c2ccc([N+](=O)[O-])cc2)cc1` (repeat unit), the glass transition temperature turned out to be 134.00 °C.

In turn, `*CC(*)C(=O)Oc1ccc(C(=O)O)cc1` (repeat unit) came in with a glass transition temperature of 125.00 °C.

`*CC(*)C(=O)Oc1ccc(C(=O)OC)cc1` (repeat unit) yielded a glass transition temperature of 67.00 °C.

With `*CC(*)C(=O)Oc1ccc(C)cc1` (repeat unit), the glass transition temperature was 42.50 °C.

On to `*CC(*)C(=O)Oc1ccc(Cl)cc1Cl` (repeat unit), for which the glass transition temperature amounted to 60.00 °C.

`*CC(*)C(=O)Oc1cccc(N(C)C)c1` (repeat unit) returned a glass transition temperature of 47.00 °C.

`*CC(*)C(=O)Oc1ccccc1` (repeat unit) registered a glass transition temperature of 60.00 °C.

Turning to `*CC(*)C(=O)Oc1ccccc1C(=O)OC` (repeat unit), the glass transition temperature came to 46.00 °C.

Compound `*CC(*)C(=O)Oc1ccccc1C(=O)OCC` (repeat unit) had a glass transition temperature of 30.00 °C.

`*CC(*)C(=O)Oc1ccccc1C(C)(C)C` (repeat unit) yielded a glass transition temperature of 72.00 °C.

`*CC(*)C(=O)Oc1ccccc1Cl` (repeat unit) came in with a glass transition temperature of 318.00 °C.

`*CC(*)C(=O)c1ccc(Br)cc1` (repeat unit) came in with a glass transition temperature of 101.50 °C.

For the compound `*CC(*)C(=O)c1ccc(C(C)C)cc1` (repeat unit), the glass transition temperature is 62.50 °C.

As to `*CC(*)C(=O)c1ccc(C)cc1` (repeat unit), the glass transition temperature came out at 59.50 °C.

As to `*CC(*)C(=O)c1ccc(OC)cc1` (repeat unit), the glass transition temperature is 46.00 °C.

`*CC(*)C1=NCCN1` (repeat unit) displayed a glass transition temperature of -48.3 °C.

`*CC(*)C1CCC(C)CC1` (repeat unit) displayed a glass transition temperature of 132.00 °C.

As for `*CC(*)CCC1CCCCC1` (repeat unit), the glass transition temperature turned out to be 40.00 °C.

In turn, `*CC(*)CCCC` (repeat unit) came in with a glass transition temperature of -50.00 °C.

As to `*CC(*)CCCCCCCCCC` (repeat unit), the glass transition temperature was -6.00 °C.

Take `*CC(*)CCCCCCCCCCCCCC` (repeat unit): the glass transition temperature is -24.00 °C.

`*CC(*)CCCCCCCCCCCCCCCC` (repeat unit) came in with a glass transition temperature of 55.00 °C.

For `*CC(*)CCCCCCCCCCCCCCCCCC` (repeat unit), the glass transition temperature is -88.00 °C.

On to `*CC(*)CCc1ccccc1` (repeat unit), for which the glass transition temperature was determined as 10.00 °C.

`*CC(*)CNc1ccc([N+](=O)[O-])c(C(F)(F)F)c1` (repeat unit): the glass transition temperature was found to be 153.00 °C.

`*CC(*)CNc1ccc([N+](=O)[O-])cc1` (repeat unit) gave a glass transition temperature of 144.00 °C.

In turn, `*CC(*)CNc1ccc([N+](=O)[O-])cn1` (repeat unit) had a glass transition temperature of 151.00 °C.

In turn, `*CC(*)Cc1ccc(C)cc1` (repeat unit) showed a glass transition temperature of 65.00 °C.

Compound `*CC(*)Cc1cccc(C)c1` (repeat unit) returned a glass transition temperature of 40.00 °C.

Compound `*O[Si](C)(C)C#Cc1ccc(C#C[Si](*)(C)C)cc1` (repeat unit) returned a glass transition temperature of 126.00 °C.

`*O[Si](C)(C)O[Si](C)(C)C#Cc1ccc(C#C[Si](*)(C)C)cc1` (repeat unit) yielded a glass transition temperature of 104.00 °C.

As for `*O[Si](C)(C)O[Si](C)(C)O[Si](C)(C)C#Cc1ccc(C#C[Si](*)(C)C)cc1` (repeat unit), the glass transition temperature worked out at 96.00 °C.

`*O[Si](C)(C)O[Si](C)(C)O[Si](C)(C)O[Si](C)(C)C#Cc1ccc(C#C[Si](*)(C)C)cc1` (repeat unit): the glass transition temperature was determined as 84.00 °C.

For `*O[Si](C)(C)O[Si](C)(C)O[Si](C)(C)O[Si](C)(C)O[Si](C)(C)C#Cc1ccc(C#C[Si](*)(C)C)cc1` (repeat unit), the glass transition temperature came to 78.00 °C.
